Results from patent US20220016101A1 (ACADIA Pharmaceuticals Inc., priority 2018, published 2022).
Where “and” joins values, the source holds several entries; their conditions need not be identical. Identical values can stand only once.

How the values were obtained:
Assay type in all cases: in vivo, human
[1] = system: patients with MDD and an inadequate response to an SSRI or SNRI; test: Sheehan Disability Score (SDS): score, functional remission, days unproductive, MDD study
From the text: The SDS is well validated and widely accepted for assessing functional outcomes in patients with MDD (Weiller et al, Neuropsychiatr Dis Treat. 2017; 14:103-115). […] Routine assessments of both symptoms and function could be helpful for minimizing residual effects that increase the risk for relapse or recurrence (Sheehan et al, J Affect Disord. 2017; 215:299-313).
“Functional remission” as used herein refers to remission in functional impairment. Functional remission is defined as a SDS total score of 6 or less at endpoint. (Sheehan et al. Human Psychopharmacology 2016, 31, 53-63).
All patients continued on their SSRI or SNRI at a stable dose for the duration of the study.
Clinic visits occurred weekly from Weeks 1 through 10. The MADRS was administered at screening and baseline. The HAMD-17, SDS, CGI, and KSS were administered at baseline and weekly during the study. Other endpoints such as the SF-12 were administered at baseline and Weeks 5 and 10. Treatment response was defined as a reduction of 50% from baseline for the HAMD-17 total score, and remission was defined as a HAMD-17 total score
In Stage 1, weeks 1-5 is the study weeks 1-5 and in Stage 2, weeks 1-5 is the study weeks 6-10. 95% CI refers to Newcombe 95% confidence interval. The p-value is from stage-specific Pearson's Chi-square test. Functional remission is defined as SDS total score […].
Higher SDS mean score indicates greater functional impairment. […] In Stage 1, weeks 1-5 is the study weeks 1-5 and in Stage 2, weeks 1-5 is the study weeks 6-10. LSM from the stage-specific MMRM analysis with the change from baseline as the outcome; treatment group, visit, treatment-by-visit interaction, baseline SDS Day Unproductive, and baseline SDS Days Unproductive-by-visit interaction as the factors. 2-sided p-value for treatment difference from the stage-specific MMRM analysis.

[2] = system: patients with MDD and an inadequate response to an SSRI or SNRI; test: HAMD-17 Item 14 (sexual interest), Study ACP-103-042; conditions: Week 5
From the text: The determination of the subject's status and eligibility for randomization in Stage 2 was made in a double-blind manner.

[3] = system: adults with Parkinson's disease and depression; test: SCOPA Sleep, open-label study in Parkinson's disease and depression; conditions: interim, first 31 patients
From the text: “Scale of Outcomes in Parkinson's Disease (SCOPA) Sleep” is a scale developed for research in Parkinson disease to evaluate nighttime sleep and daytime sleepiness and has high internal consistency for the nighttime sleep and daytime sleepiness scales (0.88 and 0.91, respectively), and test-retest reliabilities (0.94 and 0.89, respectively). Scores on the SCOPA Sleep Scale show high correlations between the nighttime sleep scale and the Pittsburgh Sleep Quality Index (0.83), and between the daytime sleepiness scale and the Epworth Sleepiness Scale (0.81). The coefficient of variation of both the nighttime sleep and the daytime sleepiness scale can be higher than that of the Pittsburgh Sleep Quality Index and the Epworth Sleepiness Scale, indicating a better ability to detect differences between individuals. (Marinus J, Visser M, van Hilten J J, Lammers G J, Stiggelbout A M. Sleep. 2003; 26(8):1049-1054.)
Subjects can receive treatment as either monotherapy or adjunctively if inadequately controlled with SSRI/SNRI monotherapy. A primary endpoint of the study is change from baseline to Week 8 in the Hamilton Depression Scale 17-item (HAMD-17) total score. Secondary endpoints include Clinical Global Impression (CGI) scales (improvement and severity), Scale of Outcomes in PD-Sleep (SCOPA), and quality of life as measured by EuroQol-5 dimensions-5 levels (EQ-5D-5L).
At approximately 2, 4, and 6 weeks after start of dosing of study drug subjects returned to the clinic for assessments. Safety measures, HAMD-17, C-SSRS (Columbia Suicide Severity Rating Scale), CGI-S(Clinical Global Impression-Severity), and CGI-I (Clinical Global Impression-Improvement) were evaluated at all visits. […]
Continuous secondary efficacy endpoints (CGI-I, CGI-S, SCOPA, and EQ-5D-5L) were analyzed using similar MMRM models as for the primary efficacy endpoint, except that the Baseline value of the endpoint being analyzed was included in the model as a covariate instead of the Baseline HAMD-17 total score. […]

CC(C)COc1ccc(CNC(=O)N(Cc2ccc(F)cc2)C2CCN(C)CC2)cc1 [pimavanserin, N-(4-Fluorophenylmethyl)-N-(1-methylpiperidin-4-yl)-N′-(4-(2-methylpropyloxy)phenylmethyl)carbamide]
SDS Days Unproductive Effect Size (Cohen's d) ([1]; Stage 1): 0.518 | SDS Days Unproductive Change from Baseline to Week 5 Mean (SE) ([1]; Stage 1, 34 mg QD + SSRI/SNRI): −2.364 (0.3253) | SDS Days Unproductive Change from Baseline to Week 5 Median ([1]; Stage 1, 34 mg QD + SSRI/SNRI): −2.000 | SDS Days Unproductive Week 5 Mean (SE) ([1]; Stage 1, 34 mg QD + SSRI/SNRI): 0.956 (0.2356) | SDS Days Unproductive Week 5 Median ([1]; Stage 1, 34 mg QD + SSRI/SNRI): 0.000 | SDS score LSmean (SE) change from baseline to Week 5 ([1]; Stage 1, 34 mg QD + SSRI/SNRI): −3.3 (0.35) | SDS score LSmean (SE) change from baseline to Week 5 ([1]; Stage 1, 34 mg QD + SSRI/SNRI, listed as Pimavanserin): −3.254 | SDS effect size (Cohen's d) ([1]; Stage 1 Week 5): 0.498 and ~0.5 | SDS individual items (work/school, social life, family life/home responsibilities) effect size vs placebo ([1]; Stage 1 Week 5): a positive effect size was observed for all the 3 individual items | SDS effect size (Cohen's d) ([1]; Stage 1 Week 5, listed as Pimavanserin): 0.498 | SDS Days Unproductive Effect Size (Cohen's d) ([1]; Stage 2): 0.167 | SDS effect size (Cohen's d) ([1]; Stage 2): 0.311 | SDS Days Unproductive Change from Baseline to Week 5 Mean (SE) ([1]; Stage 2, 34 mg QD + SSRI/SNRI): −0.655 (0.4689) | SDS Days Unproductive Change from Baseline to Week 5 Median ([1]; Stage 2, 34 mg QD + SSRI/SNRI): −1.000 | SDS Days Unproductive Week 5 Mean (SE) ([1]; Stage 2, 34 mg QD + SSRI/SNRI): 2.276 (0.4295) | SDS Days Unproductive Week 5 Median ([1]; Stage 2, 34 mg QD + SSRI/SNRI): 2.000 | SDS Score LSM change from baseline to Week 5 ([1]; Stage 2, 34 mg QD + SSRI/SNRI): −0.901 | Functional remission: Remitter (%) ([1]; Week 1, Stage 1, 34 mg QD + SSRI/SNRI): 9 (17.6) % | Functional remission: Remitter (%) ([1]; Week 1, Stage 2, 34 mg QD + SSRI/SNRI): 2 (6.9) % | Functional remission: Remitter (%) ([1]; Week 2, Stage 1, 34 mg QD + SSRI/SNRI): 21 (41.2) % | Functional remission: Remitter (%) ([1]; Week 2, Stage 2, 34 mg QD + SSRI/SNRI): 3 (10.3) % | Functional remission: Remitter (%) ([1]; Week 3, Stage 1, 34 mg QD + SSRI/SNRI): 20 (39.2) % | Functional remission: Remitter (%) ([1]; Week 3, Stage 2, 34 mg QD + SSRI/SNRI): 3 (10.3) % | Functional remission: Remitter (%) ([1]; Week 4, Stage 1, 34 mg QD + SSRI/SNRI): 20 (39.2) % | Functional remission: Remitter (%) ([1]; Week 4, Stage 2, 34 mg QD + SSRI/SNRI): 4 (13.8) % | Functional remission: Remitter (%) ([1]; Week 5, Stage 1, 34 mg QD + SSRI/SNRI): 22 (43.1) % | Functional remission: Remitter (%) ([1]; Week 5, Stage 2, 34 mg QD + SSRI/SNRI): 6 (20.7) % | SDS effect size, treatment difference in LSmean change from baseline to Week 10 ([1]; continuous treatment for 10 weeks in Stages 1 and 2): 0.469 | Weighted Treatment Diff in Remission Rate (%) ([1]; functional remission, Overall Treatment Comparison at Week 5 (Linear Combination Test)): 18.6% | Diff (PIM 34 mg-Placebo) in Remission Rate (%) ([1]; functional remission, Week 1, Stage 1): 5.1% | Diff (PIM 34 mg-Placebo) in Remission Rate (%) ([1]; functional remission, Week 1, Stage 2): −3.4% | Diff (PIM 34 mg-Placebo) in Remission Rate (%) ([1]; functional remission, Week 2, Stage 1): 27.4% | Diff (PIM 34 mg-Placebo) in Remission Rate (%) ([1]; functional remission, Week 2, Stage 2): 0.0% | Diff (PIM 34 mg-Placebo) in Remission Rate (%) ([1]; functional remission, Week 3, Stage 1): 24.1% | Diff (PIM 34 mg-Placebo) in Remission Rate (%) ([1]; functional remission, Week 3, Stage 2): 0.0% | Diff (PIM 34 mg-Placebo) in Remission Rate (%) ([1]; functional remission, Week 4, Stage 1): 19.5% | Diff (PIM 34 mg-Placebo) in Remission Rate (%) ([1]; functional remission, Week 4, Stage 2): 6.9% | Diff (PIM 34 mg-Placebo) in Remission Rate (%) ([1]; functional remission, Week 5, Stage 1): 23.4% | Diff (PIM 34 mg-Placebo) in Remission Rate (%) ([1]; functional remission, Week 5, Stage 2): 13.8% | SDS LSmean difference (SE) pimavanserin vs placebo ([1]; overall (weighted Stage 1 and Stage 2)): −0.8 (0.29) | HAMD-17 Item 14 (sexual interest) Cohen's d effect size [2]: 0.574 | HAMD-17 Item 14 (sexual interest) LS Mean (SE) change from baseline ([2]; 34 mg QD + SSRI/SNRI): −0.7 (0.12) | SCOPA-Daytime Sleepiness change from Baseline to Week 8 [3]: −2.1 (0.4) | SCOPA-Global Sleep Quality change from Baseline to Week 8 [3]: −1.0 (0.4) | SCOPA-Nighttime Sleep change from Baseline to Week 8 [3]: −2.1 (0.7)
